These are literature values, as cited in patent US10828380B2, “Conjugate of polysarcosine and NIR contrast agent for photoacoustic imaging” (CANON KABUSHIKI KAISHA, priority 2015, dated 2020).

In the case of `CC1(C)C(/C=C/C=C/C=C/C=C2/N(CCCCS(=O)(=O)[O-])c3ccc4ccccc4c3C2(C)C)=[N+](CCCCS(=O)(=O)[O-])c2ccc3ccccc3c21.[Na+]` [ICG, indocyanine green], the half-life in blood entry is reported as “about several minutes”.
